Experimental data taken from patent US11951094B2, “TLR2 modulator compounds, pharmaceutical compositions and uses thereof” (Axial Therapeutics, Inc., priority 2020, dated 2024).

Target: TLR2 (Homo sapiens, UniProt O60603)
Assay: TLR2 agonist screening assay, HEK-Blue TLR2 reporter cell line (NF-kB-driven SEAP, absorbance at 600 nm)
Type: cell-based
Design: host or cells: HEK-293 (HEK-Blue TLR2 reporter cell line)
Details: HEK-Blue TLR2 reporter cells, agonist mode
Outline: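 HEK-293 cells expressing TLR2 with NF-kB-driven SEAP were plated at 40,000 per well. After 16-24 h, they were treated overnight with diluted agonists in detection medium (1% DMSO final). Absorbance at 600 nm was read, and EC50 values were fitted.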

Chain of TLR2 (O60603 21-784): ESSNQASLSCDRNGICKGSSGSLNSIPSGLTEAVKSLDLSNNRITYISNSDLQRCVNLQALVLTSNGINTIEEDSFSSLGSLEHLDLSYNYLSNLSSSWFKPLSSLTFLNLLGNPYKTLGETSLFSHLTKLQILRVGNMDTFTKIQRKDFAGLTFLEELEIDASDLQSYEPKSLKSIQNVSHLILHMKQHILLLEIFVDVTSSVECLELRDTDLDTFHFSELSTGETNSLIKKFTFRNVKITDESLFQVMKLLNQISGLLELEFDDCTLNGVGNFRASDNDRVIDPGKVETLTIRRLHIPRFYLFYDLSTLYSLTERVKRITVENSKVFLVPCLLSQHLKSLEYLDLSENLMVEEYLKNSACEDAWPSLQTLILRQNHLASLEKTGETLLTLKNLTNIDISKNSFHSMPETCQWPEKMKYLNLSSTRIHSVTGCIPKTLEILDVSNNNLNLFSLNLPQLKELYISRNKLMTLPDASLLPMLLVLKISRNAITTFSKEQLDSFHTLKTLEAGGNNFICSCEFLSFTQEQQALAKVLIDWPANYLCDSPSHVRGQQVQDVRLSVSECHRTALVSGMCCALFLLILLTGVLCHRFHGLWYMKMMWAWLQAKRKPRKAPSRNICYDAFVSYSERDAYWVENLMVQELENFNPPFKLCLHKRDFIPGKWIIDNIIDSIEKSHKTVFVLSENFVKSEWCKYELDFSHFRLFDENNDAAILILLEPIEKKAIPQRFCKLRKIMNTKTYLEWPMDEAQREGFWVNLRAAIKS

| SMILES | EC50 (average of all runs (Table 4)) [µM] | EC50 (average of all runs (Table 3)) [µM] |
| --- | --- | --- |
| CCCCCCCCCCCCCCNC(=O)[C@@H]1CN(C(=O)c2ccc(C(=O)N3C[C@@H](C(=O)N[C@H]4C[C@@H]4c4ccccc4)[C@H](C(=O)N[C@H]4C[C@@H]4c4ccccc4)C3)cc2)C[C@H]1N(C)C [Compound 091, (3S,4S)-1-(4-((3S,4R)-3-(dimethylamino)-4-(tetradecylcarbamoyl)pyrrolidine-1-carbonyl)benzoyl)-N3,N4-bis((1S,2R)-2-phenylcyclopropyl)pyrrolidine-3,4-dicarboxamide] | > 1 | – |
| CCCCCCCCN1C(=O)N(Cc2ccc(C(=O)N3C[C@@H](C(=O)N[C@H]4C[C@@H]4c4ccccc4)[C@H](C(=O)N[C@H]4C[C@@H]4c4ccccc4)C3)cc2)C[C@H]1C(=O)NCCCCCC [Compound 167, (3S,4S)-1-(4-(((S)-4-(hexylcarbamoyl)-3-octyl-2-oxoimidazolidin-1-yl)methyl)benzoyl)-N3,N4-bis((1S,2R)-2-phenylcyclopropyl)pyrrolidine-3,4-dicarboxamide] | 0.0001 to 0.05 | – |
| CCCCCCCCCCCCNC(=O)[C@@H]1CN(C(=O)c2ccc(C(=O)N3C[C@@H](C(=O)N[C@H]4C[C@@H]4c4ccccc4)[C@H](C(=O)N[C@H]4C[C@@H]4c4ccccc4)C3)cc2)CCN1C(C)=O [Compound 255, (3S,4S)-1-(4-((S)-4-acetyl-3-(dodecylcarbamoyl)piperazine-1-carbonyl)benzoyl)-N3,N4-bis((1S,2R)-2-phenylcyclopropyl)pyrrolidine-3,4-dicarboxamide] | > 1 | – |
| CCCCCCCCCC(=O)N[C@@H](CNc1nc2ccc(C(=O)N3C[C@@H](C(=O)N[C@H]4C[C@@H]4c4ccccc4)[C@H](C(=O)N[C@H]4C[C@@H]4c4ccccc4)C3)cc2o1)C(=O)NCCCCCC [Compound 261, (3S,4S)-1-(2-(((S)-2-decanamido-3-(hexylamino)-3-oxopropyl)amino)benzo[d]oxazole-6-carbonyl)-N3,N4-bis((1S,2R)-2-phenylcyclopropyl)pyrrolidine-3,4-dicarboxamide] | > 1 | – |
| CCCCCCCCCCCCCCNC(=O)[C@H]1CN(Cc2ccc(C(=O)N3C[C@@H](C(=O)N[C@H]4C[C@@H]4c4ccccc4)[C@H](C(=O)N[C@H]4C[C@@H]4c4ccccc4)C3)cc2)C(=O)CN1C [Compound 092, (3S,4S)-1-(4-(((R)-4-methyl-2-oxo-5-(tetradecylcarbamoyl)piperazin-1-yl)methyl)benzoyl)-N3,N4-bis((1S,2R)-2-phenylcyclopropyl)pyrrolidine-3,4-dicarboxamide] | 0.051 to 0.35 | – |
| CCCCCCCNC(=O)C1CN(C(=O)c2ccc(C(=O)N3C[C@@H](C(=O)N[C@H]4C[C@@H]4c4ccccc4)[C@H](C(=O)N[C@H]4C[C@@H]4c4ccccc4)C3)cc2)CCN1C(=O)CCCCCCC (stereo partly shown) [Compound 058] | – | 0.051 to 0.35 |
| CCCCCCCCCCCCCCNC(=O)[C@@H]1CN(C(=O)c2ccc(C(=O)N3C[C@@H](C(=O)N[C@H]4C[C@@H]4c4ccccc4)[C@H](C(=O)N[C@H]4C[C@@H]4c4ccccc4)C3)cc2)CCN1C(=O)C(C)(C)C [Compound 251, (3S,4S)—N3,N4-bis((1S,2R)-2-phenylcyclopropyl)-1-(4-((S)-4-pivaloyl-3-(tetradecylcarbamoyl)piperazine-1-carbonyl)benzoyl)pyrrolidine-3,4-dicarboxamide] | > 1 | – |
| CCCCCCCCCCCCCCNC(=O)C1CCN(C(=O)c2ccc(C(=O)N3C[C@@H](C(=O)N[C@H]4C[C@@H]4c4ccccc4)[C@H](C(=O)N[C@H]4C[C@@H]4c4ccccc4)C3)cc2)CC1 [Compound 010] | – | > 1 |
| CCCCCCCCCCCCCCNC(=O)[C@@H]1CN(Cc2ccc(C(=O)N3C[C@@H](C(=O)N[C@H]4C[C@@H]4c4ccccc4)[C@H](C(=O)N[C@H]4C[C@@H]4c4ccccc4)C3)cc2)CCN1C [Compound 088, (3S,4S)-1-(4-(((S)-4-methyl-3-(tetradecylcarbamoyl)piperazin-1-yl)methyl)benzoyl)-N3,N4-bis((1S,2R)-2-phenylcyclopropyl) pyrrolidine-3,4-dicarboxamide] | > 1 | – |
| CCCCCCNC(=O)[C@@H]1CN(C(=O)c2ccc(C(=O)N3C[C@@H](C(=O)N[C@H]4C[C@@H]4c4ccccc4)[C@H](C(=O)N[C@H]4C[C@@H]4c4ccccc4)C3)cc2)C[C@@H]1O (racemic) [Compound 034, (3S,4S)-1-(4-((3R*,4R*)-3-(hexylcarbamoyl)-4-hydroxypyrrolidine-1-carbonyl)benzoyl)-N3,N4-bis((1S,2R)-2-phenylcyclopropyl)pyrrolidine-3,4-dicarboxamide] | – | 0.351 to 1 |
| CCCCCCCCCCCCCCNC(=O)[C@H]1CCCN(C(=O)c2ccc(C(=O)N3C[C@@H](C(=O)N[C@H]4C[C@@H]4c4ccccc4)[C@H](C(=O)N[C@H]4C[C@@H]4c4ccccc4)C3)cc2)C1 [Compound 123, (3S,4S)—N3,N4-bis((1S,2R)-2-phenylcyclopropyl)-1-(4-((S)-3-(tetradecylcarbamoyl)piperidine-1-carbonyl)benzoyl)pyrrolidine-3,4-dicarboxamide] | 0.0001 to 0.05 | – |
| CCCCCCCC(=O)N1CCCN(S(=O)(=O)c2ccc(C(=O)N3C[C@@H](C(=O)N[C@H]4C[C@@H]4c4ccccc4)[C@H](C(=O)N[C@H]4C[C@@H]4c4ccccc4)C3)cc2)CC1C(=O)NCCCCCC (single isomer, unassigned) [Compound 202, (3S,4S)-1-(4-(((S*)-3-(hexylcarbamoyl)-4-octanoyl-1,4-diazepan-1-yl)sulfonyl)benzoyl)-N3,N4-bis((1S,2R)-2-phenylcyclopropyl)pyrrolidine-3,4-dicarboxamide] | 0.051 to 0.35 | – |
| CCCCCCCCCCCCCCC(=O)N[C@H]1CCN(Cc2ccc(C(=O)N3C[C@@H](C(=O)N[C@H]4C[C@@H]4c4ccccc4)[C@H](C(=O)N[C@H]4C[C@@H]4c4ccccc4)C3)cc2)C1=O [Compound 133, (3S,4S)-1-(4-(((S)-2-oxo-3-pentadecanamidopyrrolidin-1-yl)methyl)benzoyl)-N3,N4-bis((1S,2R)-2-phenylcyclopropyl)pyrrolidine-3,4-dicarboxamide] | > 1 | – |

Second part, the compound after the results:

| EC50 (average of all runs (Table 4)) [µM] | EC50 (average of all runs (Table 3)) [µM] | SMILES |
| --- | --- | --- |
| 0.051 to 0.35 | – | CCCCCCCCCC(=O)N[C@@H](CN1Cc2cc(C(=O)N3C[C@@H](C(=O)N[C@H]4C[C@@H]4c4ccccc4)[C@H](C(=O)N[C@H]4C[C@@H]4c4ccccc4)C3)ccc2C1=O)C(=O)NCCCCCC [Compound 242, (3S,4S)-1-(2-((S)-2-decanamido-3-(hexylamino)-3-oxopropyl)-1-oxoisoindoline-5-carbonyl)-N3,N4-bis((1S,2R)-2-phenylcyclopropyl)pyrrolidine-3,4-dicarboxamide] |
| > 1 | – | CCCCCCNC(=O)[C@@H](CCNC(=O)c1ccc(C(=O)N2C[C@@H](C(=O)N[C@H]3C[C@@H]3c3ccccc3)[C@H](C(=O)N[C@H]3C[C@@H]3c3ccccc3)C2)cc1)NC(=O)CCCCCC [Compound 120, (3S,4S)-1-(4-(((R)-3-heptanamido-4-(hexylamino)-4-oxobutyl)carbamoyl)benzoyl)-N3,N4-bis((1S,2R)-2-phenylcyclopropyl)pyrrolidine-3,4-dicarboxamide] |
| > 1 | – | CCCCCCCCCCCCCCC(=O)NC1CCN(C(=O)c2cccc(C(=O)N3C[C@@H](C(=O)N[C@H]4C[C@@H]4c4ccccc4)[C@H](C(=O)N[C@H]4C[C@@H]4c4ccccc4)C3)c2)CC1 [Compound 166, (3S,4S)-1-(3-(4-pentadecanamidopiperidine-1-carbonyl)benzoyl)-N3,N4-bis((1S,2R)-2-phenylcyclopropyl)pyrrolidine-3,4-dicarboxamide] |
| > 1 | – | CCCCCCCCCC(=O)N[C@@H](CNC(=O)Nc1ccc(C(=O)N2C[C@@H](C(=O)N[C@H]3C[C@@H]3c3ccccc3)[C@H](C(=O)N[C@H]3C[C@@H]3c3ccccc3)C2)cc1)C(=O)NCCCCCC [Compound 235, (3S,4S)-1-(4-(3-((S)-2-decanamido-3-(hexylamino)-3-oxopropyl)ureido)benzoyl)-N3,N4-bis((1S,2R)-2-phenylcyclopropyl)pyrrolidine-3,4-dicarboxamide] |
| > 1 | – | CCCCCCCCCCCCCCN1C(=O)CNC(=O)[C@@H]1CNC(=O)c1ccc(C(=O)N2C[C@@H](C(=O)N[C@H]3C[C@@H]3c3ccccc3)[C@H](C(=O)N[C@H]3C[C@@H]3c3ccccc3)C2)cc1 [Compound 147, (3S,4S)-1-(4-((((S)-3,6-dioxo-1-tetradecylpiperazin-2-yl)methyl)carbamoyl)benzoyl)-N3,N4-bis((1S,2R)-2-phenylcyclopropyl)pyrrolidine-3,4-dicarboxamide] |
| – | > 1 | CCCCCCCOC1CN(C(=O)c2ccc(C(=O)N3C[C@@H](C(=O)N[C@H]4C[C@@H]4c4ccccc4)[C@H](C(=O)N[C@H]4C[C@@H]4c4ccccc4)C3)cc2)C[C@H]1OCCCCCCC (stereo partly shown) [Compound 016] |
| 0.351 to 1 | – | CCCCCCCO[C@@H]1CN(C(=O)c2ccc(C(=O)N3C[C@@H](C(=O)N[C@H]4C[C@@H]4c4ccccc4)[C@H](C(=O)N[C@H]4C[C@@H]4c4ccccc4)C3)cc2)C[C@@H]1C(=O)NCCCCCC (relative stereo) [Compound 116, (3S,4S)-1-(4-((3S*,4S*)-3-(heptyloxy)-4-(hexylcarbamoyl)pyrrolidine-1-carbonyl)benzoyl)-N3,N4-bis((1S,2R)-2-phenylcyclopropyl)pyrrolidine-3,4-dicarboxamide] |
| > 1 | – | CCCCCCCCCCCCCCNC(=O)[C@@H]1CN(C(=O)c2ccc(C(=O)N3C[C@@H](C(=O)N[C@H]4C[C@@H]4c4ccccc4)[C@H](C(=O)N[C@H]4C[C@@H]4c4ccccc4)C3)cc2)CCN1C(=O)CC(C)C [Compound 252, (3S,4S)-1-(4-((S)-4-(3-methylbutanoyl)-3-(tetradecylcarbamoyl)piperazine-1-carbonyl)benzoyl)-N3,N4-bis((1S,2R)-2-phenylcyclopropyl)pyrrolidine-3,4-dicarboxamide] |
| > 1 | – | CCCCCCCCCCCCCNC(=O)N[C@H]1CN(c2ncc(-c3ccc(C(=O)N4C[C@@H](C(=O)N[C@H]5C[C@@H]5c5ccccc5)[C@H](C(=O)N[C@H]5C[C@@H]5c5ccccc5)C4)cc3)o2)C[C@@H]1OC [Compound 234, (3S,4S)-1-(4-(2-((3S,4S)-3-methoxy-4-(3-tridecylureido)pyrrolidin-1-yl)oxazol-5-yl)benzoyl)-N3,N4-bis((1S,2R)-2-phenylcyclopropyl)pyrrolidine-3,4-dicarboxamide] |
